{"source": "patent US9364479B2", "about": "“Use of a receptor-type kinase modulator for treating polycystic kidney disease” (SYMPHONY EVOLUTION, INC., priority 2010, dated 2016)", "key": {"c-Kit": {"target": "c-Kit (Homo sapiens, UniProt P10721)", "sequence (P10721 26-976)": "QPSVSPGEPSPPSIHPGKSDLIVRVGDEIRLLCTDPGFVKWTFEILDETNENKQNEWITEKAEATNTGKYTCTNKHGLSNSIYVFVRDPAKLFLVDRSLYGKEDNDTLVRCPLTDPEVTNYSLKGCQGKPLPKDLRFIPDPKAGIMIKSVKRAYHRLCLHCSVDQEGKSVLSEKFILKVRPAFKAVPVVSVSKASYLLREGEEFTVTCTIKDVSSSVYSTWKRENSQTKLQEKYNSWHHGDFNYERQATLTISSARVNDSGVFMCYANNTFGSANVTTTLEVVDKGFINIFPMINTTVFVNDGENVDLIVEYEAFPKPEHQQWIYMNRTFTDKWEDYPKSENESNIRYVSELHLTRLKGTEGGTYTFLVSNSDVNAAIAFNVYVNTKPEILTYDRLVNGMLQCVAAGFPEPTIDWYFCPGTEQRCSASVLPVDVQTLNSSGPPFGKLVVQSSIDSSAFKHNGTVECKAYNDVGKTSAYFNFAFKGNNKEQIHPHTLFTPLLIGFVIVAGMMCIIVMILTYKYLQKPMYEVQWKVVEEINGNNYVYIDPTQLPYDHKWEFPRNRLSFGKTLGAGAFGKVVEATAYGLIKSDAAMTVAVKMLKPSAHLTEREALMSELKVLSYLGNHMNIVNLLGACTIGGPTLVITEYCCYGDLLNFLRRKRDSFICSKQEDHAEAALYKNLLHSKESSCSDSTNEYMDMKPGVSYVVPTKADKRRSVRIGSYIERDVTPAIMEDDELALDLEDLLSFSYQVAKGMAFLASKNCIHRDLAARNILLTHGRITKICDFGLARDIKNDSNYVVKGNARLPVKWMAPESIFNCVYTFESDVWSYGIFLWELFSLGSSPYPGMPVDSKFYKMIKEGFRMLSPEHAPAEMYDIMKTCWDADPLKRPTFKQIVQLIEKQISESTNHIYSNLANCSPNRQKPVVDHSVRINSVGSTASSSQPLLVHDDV", "experiment": "c-Kit autophosphorylation ELISA, transfected HeLa cells", "assay_type": "cell-based", "parameters": "expressed in transfected cells; host or cells: HeLa", "conditions": "read-out: Cellular IC50, autophosphorylation", "description": "The c-Kit autophosphorylation ELISA utilized HeLa (ATCC) cells. Cells were seeded at 6×10^5 cells/well onto 100 mm dish. 24 hours later, HeLa cells were transfected with a mammalian expression plasmid containing a CMV promoter operably linked to the open reading frame of human c-kit with a Flag epitope tag on the C-terminus 24 hours later, c-Kit transfected HeLa cells were trypsinized and re-seeded at 6×10^3 cells/well into 96-well microtiter plates (Costar 3904), in DMEM (Cellgro) containing 10% FBS (Heat-Inactivated, Hyclone), 1% penicillin-streptomycin (Cellgro), and 1% NEAA solution (Cellgro). The cells were then incubated at 37° C., 5% CO2 for 24 hr. […] Negative control wells were left unstimulated. Following stimulation, media was removed, the cell monolayer washed with cold PBS and immediately lysed with cold lysis buffer. Lysates were incubated in 96-well streptavidin-coated plates (Pierce) coated with biotin-conjugated, goat anti-human c-Kit (1 μg/ml, R&D Systems). Plates were washed 3× with TBST and incubated either with HRP-conjugated anti-phosphotyrosine (1:10,000, Zymed Laboratories, Inc) or HRP-conjugated anti-Flag(M2) (1:2,000, Sigma). Plates were washed again as described above followed by the addition of a luminol-based substrate solution and read with a Victor spectrophotometer (Wallac)."}, "[1]": {"tested_on": "Glutamate, NMDA Agonist Site", "experiment": "NovaScreen assay", "assay_type": "binding"}, "KDR": {"target": "KDR (Homo sapiens, UniProt P35968)", "experiment": "Cellular autophosphorylation assay", "assay_type": "cell-based"}, "Tie-2": {"target": "Tie-2 (Homo sapiens, UniProt Q02763)", "experiment": "Radiometric kinase assay", "assay_type": "biochemical", "description": "(§1) A radiometric ^33P-Phosphoryl transfer kinase assay was used to measure EphB4, insulin-like growth factor-I receptor (IGFR-1), and insulin receptor (IRK) activity. Reactions were performed in 384-well white, clear bottom, high-binding microtiter plates (Greiner). Plates were coated with 2 μg/well peptide substrate in a 50 μL volume. […] The coated plates were washed once with 50 μL assay buffer following overnight incubation at room temperature. Test compound and either 5 nmol/L EphB4 (residues E605-E890 of human EphB4 containing a six histidine NH2-terminal tag, expressed in a baculovirus expression system and purified using metal chelate chromatography), 4 nmol/L insulin-like growth factor-I receptor (residues M954-C1367 of human insulin-like growth factor-I receptor, Proqinase GmbH), or 15 nmol/L insulin receptor 1 (residues P948-S1343 of human insulin receptor 1, Proqinase) were combined with [^33P]g-ATP (5 μmol/L, 3.3 μCi/nmol) in a total volume of 20 μL. The reaction mixture was incubated at room temperature for 1.5 to 2.5 h and terminated by aspiration. The microtiter plates were subsequently washed six times with 0.05% Tween-PBS buffer. Scintillation fluid (50 μL/well) was added and incorporated ^33P was measured by liquid scintillation spectrometry using a MicroBeta scintillation counter (Perkin-Elmer). […]"}, "Flt1": {"target": "Flt1 (Homo sapiens, UniProt P17948)", "experiment": "Radiometric kinase assay", "assay_type": "biochemical", "description": "as §1"}, "[2]": {"tested_on": "Nicotinic (a-bungarotoxin insensitive)", "experiment": "NovaScreen assay", "assay_type": "binding"}, "[3]": {"target": "T1, Muscarinic, M2 (Human Recombinant) (Homo sapiens, UniProt P08172)", "T1 construct": "NovaScreen", "T1 sequence (P08172 whole entry)": "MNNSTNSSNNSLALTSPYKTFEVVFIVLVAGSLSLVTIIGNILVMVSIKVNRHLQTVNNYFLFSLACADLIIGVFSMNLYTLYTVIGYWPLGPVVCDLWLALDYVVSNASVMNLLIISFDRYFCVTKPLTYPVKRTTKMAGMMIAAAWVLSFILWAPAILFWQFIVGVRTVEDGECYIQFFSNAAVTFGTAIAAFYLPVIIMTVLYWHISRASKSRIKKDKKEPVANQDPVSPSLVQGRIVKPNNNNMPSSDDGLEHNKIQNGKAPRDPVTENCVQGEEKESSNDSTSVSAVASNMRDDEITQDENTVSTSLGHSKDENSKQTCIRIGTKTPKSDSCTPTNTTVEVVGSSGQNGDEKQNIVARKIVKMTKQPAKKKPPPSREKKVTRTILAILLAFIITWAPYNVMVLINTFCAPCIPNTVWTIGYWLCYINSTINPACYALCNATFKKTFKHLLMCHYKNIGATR", "experiment": "NovaScreen assay", "assay_type": "binding"}, "p-Y-EGFR": {"target": "p-Y-EGFR (Homo sapiens, UniProt P00533)", "sequence (P00533 25-1210)": "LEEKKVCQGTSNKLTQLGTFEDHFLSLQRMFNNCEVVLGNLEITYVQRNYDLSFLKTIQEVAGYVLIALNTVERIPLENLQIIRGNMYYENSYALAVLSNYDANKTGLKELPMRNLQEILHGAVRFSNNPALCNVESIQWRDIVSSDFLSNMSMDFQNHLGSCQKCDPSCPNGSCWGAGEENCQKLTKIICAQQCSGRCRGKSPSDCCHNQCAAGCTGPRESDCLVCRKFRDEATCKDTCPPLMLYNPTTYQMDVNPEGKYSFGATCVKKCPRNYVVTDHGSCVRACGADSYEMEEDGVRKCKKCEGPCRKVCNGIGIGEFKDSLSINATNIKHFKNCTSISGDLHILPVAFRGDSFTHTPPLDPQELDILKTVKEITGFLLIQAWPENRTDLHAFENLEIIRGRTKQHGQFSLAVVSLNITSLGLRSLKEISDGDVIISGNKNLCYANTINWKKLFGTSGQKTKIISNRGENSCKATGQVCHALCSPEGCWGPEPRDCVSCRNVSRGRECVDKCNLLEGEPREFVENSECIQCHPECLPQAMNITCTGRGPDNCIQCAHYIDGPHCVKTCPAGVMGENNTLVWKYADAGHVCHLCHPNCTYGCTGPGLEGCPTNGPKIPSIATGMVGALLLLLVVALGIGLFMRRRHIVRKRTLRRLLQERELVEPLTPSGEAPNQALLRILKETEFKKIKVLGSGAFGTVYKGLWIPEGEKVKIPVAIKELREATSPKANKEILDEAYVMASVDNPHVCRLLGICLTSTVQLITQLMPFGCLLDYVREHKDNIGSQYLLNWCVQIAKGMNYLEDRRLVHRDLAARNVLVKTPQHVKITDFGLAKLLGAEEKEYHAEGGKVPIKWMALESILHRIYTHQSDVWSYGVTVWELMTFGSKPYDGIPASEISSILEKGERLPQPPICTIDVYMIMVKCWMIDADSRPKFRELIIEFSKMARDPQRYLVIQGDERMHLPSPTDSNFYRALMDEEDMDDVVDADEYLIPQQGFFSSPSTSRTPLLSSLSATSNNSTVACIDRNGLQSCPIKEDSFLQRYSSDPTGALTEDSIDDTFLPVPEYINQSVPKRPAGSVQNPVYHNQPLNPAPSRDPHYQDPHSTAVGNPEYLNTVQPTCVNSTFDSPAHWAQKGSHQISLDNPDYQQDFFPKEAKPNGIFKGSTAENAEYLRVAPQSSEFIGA", "experiment": "In vivo receptor phosphorylation, A431 xenografts", "parameters": "species or system mouse"}, "[4]": {"target": "T2, Platelet Activating Factor, PAF (Homo sapiens, UniProt P25105)", "T2 construct": "NovaScreen", "experiment": "NovaScreen assay", "assay_type": "binding", "conditions": "read-out: Inhibition, 10 μM XL-647"}, "GABA A, Agonist Site": {"tested_on": "GABA A, Agonist Site", "experiment": "NovaScreen assay", "assay_type": "binding"}, "[5]": {"conditions": "human, in vivo"}, "Calcium Channel, Type N": {"target": "T3, Calcium Channel, Type N (Homo sapiens, UniProt Q00975)", "T3 construct": "NovaScreen", "T3 sequence (Q00975 whole entry)": "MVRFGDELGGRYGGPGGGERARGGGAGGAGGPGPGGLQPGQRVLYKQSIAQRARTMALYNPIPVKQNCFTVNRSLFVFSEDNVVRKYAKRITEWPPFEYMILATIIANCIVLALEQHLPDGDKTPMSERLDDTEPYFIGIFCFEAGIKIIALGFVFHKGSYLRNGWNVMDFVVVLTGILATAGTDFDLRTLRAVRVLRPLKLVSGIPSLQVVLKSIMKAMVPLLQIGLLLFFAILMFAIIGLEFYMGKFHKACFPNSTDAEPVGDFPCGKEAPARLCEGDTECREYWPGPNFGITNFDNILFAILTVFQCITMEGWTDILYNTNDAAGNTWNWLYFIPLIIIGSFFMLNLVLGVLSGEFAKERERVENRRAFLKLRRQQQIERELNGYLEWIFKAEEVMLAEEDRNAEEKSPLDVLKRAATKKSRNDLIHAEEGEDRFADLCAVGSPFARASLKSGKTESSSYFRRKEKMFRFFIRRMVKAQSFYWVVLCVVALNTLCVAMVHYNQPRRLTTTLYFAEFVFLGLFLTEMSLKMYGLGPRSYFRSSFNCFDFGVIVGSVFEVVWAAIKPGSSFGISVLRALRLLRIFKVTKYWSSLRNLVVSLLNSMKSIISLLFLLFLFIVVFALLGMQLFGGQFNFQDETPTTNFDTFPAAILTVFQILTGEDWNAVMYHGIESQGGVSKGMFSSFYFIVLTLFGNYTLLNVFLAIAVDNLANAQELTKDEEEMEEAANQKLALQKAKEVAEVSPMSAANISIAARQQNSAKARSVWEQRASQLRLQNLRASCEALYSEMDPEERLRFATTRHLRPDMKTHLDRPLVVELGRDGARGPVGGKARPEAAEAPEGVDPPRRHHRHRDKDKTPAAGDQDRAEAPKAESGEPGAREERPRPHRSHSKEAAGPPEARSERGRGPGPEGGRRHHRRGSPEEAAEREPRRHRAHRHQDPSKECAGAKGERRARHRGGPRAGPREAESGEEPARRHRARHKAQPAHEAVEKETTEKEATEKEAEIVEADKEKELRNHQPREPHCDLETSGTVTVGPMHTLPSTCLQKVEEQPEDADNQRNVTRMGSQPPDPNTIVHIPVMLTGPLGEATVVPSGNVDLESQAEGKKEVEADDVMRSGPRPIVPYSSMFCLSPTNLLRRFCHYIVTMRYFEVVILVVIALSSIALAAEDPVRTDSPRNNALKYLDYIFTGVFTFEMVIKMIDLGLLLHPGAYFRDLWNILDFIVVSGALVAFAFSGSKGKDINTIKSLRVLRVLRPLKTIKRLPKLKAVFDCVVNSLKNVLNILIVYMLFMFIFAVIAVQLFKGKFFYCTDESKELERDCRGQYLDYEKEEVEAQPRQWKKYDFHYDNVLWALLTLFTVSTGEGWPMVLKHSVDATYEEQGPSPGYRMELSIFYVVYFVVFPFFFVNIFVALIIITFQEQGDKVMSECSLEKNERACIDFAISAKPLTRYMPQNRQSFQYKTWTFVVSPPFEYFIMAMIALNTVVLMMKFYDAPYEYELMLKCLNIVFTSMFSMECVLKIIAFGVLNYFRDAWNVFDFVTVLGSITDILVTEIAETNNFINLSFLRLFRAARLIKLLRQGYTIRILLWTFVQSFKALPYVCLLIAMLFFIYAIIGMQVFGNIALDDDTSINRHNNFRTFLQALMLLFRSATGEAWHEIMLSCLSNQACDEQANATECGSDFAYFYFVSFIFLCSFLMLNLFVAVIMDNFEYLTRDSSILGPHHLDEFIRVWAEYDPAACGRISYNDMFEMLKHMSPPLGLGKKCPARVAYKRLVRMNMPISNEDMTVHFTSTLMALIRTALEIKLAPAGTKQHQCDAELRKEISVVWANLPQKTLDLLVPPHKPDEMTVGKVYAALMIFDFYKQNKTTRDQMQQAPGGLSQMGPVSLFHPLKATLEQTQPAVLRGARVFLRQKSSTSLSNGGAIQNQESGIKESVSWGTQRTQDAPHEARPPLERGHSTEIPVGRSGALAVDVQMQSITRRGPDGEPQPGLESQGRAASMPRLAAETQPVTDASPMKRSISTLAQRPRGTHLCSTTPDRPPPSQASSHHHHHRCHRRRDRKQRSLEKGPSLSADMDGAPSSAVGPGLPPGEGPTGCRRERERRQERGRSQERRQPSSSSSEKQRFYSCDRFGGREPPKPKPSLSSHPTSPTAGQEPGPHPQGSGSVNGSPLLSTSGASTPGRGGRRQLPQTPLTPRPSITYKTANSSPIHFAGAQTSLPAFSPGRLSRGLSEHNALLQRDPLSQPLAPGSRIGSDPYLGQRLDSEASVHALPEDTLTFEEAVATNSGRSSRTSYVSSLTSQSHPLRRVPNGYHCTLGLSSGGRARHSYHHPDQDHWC", "experiment": "NovaScreen assay", "assay_type": "binding", "conditions": "read-out: Inhibition, 10 μM XL-647"}, "[6]": {"tested_on": "Calu-6 human tumor xenograft", "experiment": "Calu-6 xenograft, tumor growth", "assay_type": "in vivo", "conditions": "Mus musculus, qd × 28", "description": "The response of tumors to treatment was determined by comparing the mean tumor weight of the treatment group with the appropriate control group. Percentage inhibition of tumor growth was determined with the following formula: Percentage inhibition=100×[1−(Xf−Xo)/(Yf−Yo)], where Xf and Yf are the mean tumor weights of the treatment and control groups, respectively, on day f, and Xo and Yo are the mean tumor weights of treatment and control groups respectively, on day zero (staged tumor weights after grouping)"}, "Lck": {"target": "T4, Lck (Homo sapiens, UniProt P06239)", "T4 construct": "Human, Q225-; mM MgCl2, 3 mM MnCl2, 1; P510, N-GST/C-; GST (N); EF (C)", "experiment": "Chemiluminescent kinase assay", "assay_type": "biochemical", "description": "(§2) A Luciferase-coupled chemiluminescence assay was used to measure EGFR and KDR (VEGFR2) activity. Kinase activity was measured as the percentage of ATP consumed following the kinase reaction using luciferase-luciferin-coupled chemiluminescence. Reactions were conducted in 384-well white, medium-binding microtiter plates (Greiner). […] The reaction mixture was incubated at room temperature for 4 h. Following the kinase reaction, a 20 μL aliquot of Kinase Glo (Promega) was added and luminescence signal was measured using a Victor2 plate reader (Perkin-Elmer). Total ATP consumption was limited to 50%.\n(§3) Further screening was performed using the biochemical assay methods of Example 2. Additional description of the components and concentrations are summarized in Table 8, Table 9, and Table 10, below."}, "ZAP-70": {"target": "T5, ZAP-70 (Homo sapiens, UniProt P43403)", "T5 construct": "purchased MBL", "experiment": "Chemiluminescent kinase assay", "assay_type": "biochemical", "description": "as §2, §3"}, "c-Met": {"target": "T6, c-Met (Homo sapiens, UniProt P08581)", "T6 construct": "Human, P948-; MgCl2, 0.02% Triton X-100,; S1343, N-GST-; GST (N); purchased ProQinase", "experiment": "Chemiluminescent kinase assay", "assay_type": "biochemical", "description": "as §2, §3"}, "c-Abl": {"target": "T7, c-Abl (Homo sapiens, UniProt P00519)", "T7 construct": "Human, P118-; mM MgCl2, 3 mM MnCl2, 1; S553, N-GST,; GST (N); purchased ProQinase", "experiment": "Chemiluminescent kinase assay", "assay_type": "biochemical", "description": "as §2, §3"}}, "data": [{"smiles": "COc1cc2c(Nc3ccc(Cl)c(Cl)c3F)ncnc2cc1OC[C@@H]1C[C@@H]2CN(C)C[C@@H]2C1", "note": "[XL-647, N-(3,4-dichloro-2-fluorophenyl)-7-({[(3aR,5r,6aS)-2-methyloctahydrocyclopenta[c]pyrrol-5-yl]methyl}oxy)-6-(methyloxy)quinazolin-4-amine]", "values": [{"measurement": "IC50", "setting": "c-Kit", "result": 0.09, "unit": "µM"}, {"measurement": "Inhibition, 10 μM XL-647", "setting": "[1]", "result": "−1.66", "unit": "%"}, {"measurement": "IC50", "setting": "KDR", "result": 0.137, "unit": "µM"}, {"measurement": "IC50", "setting": "Tie-2", "result": "0.054 ± 0.0134", "unit": "µM"}, {"measurement": "IC50", "setting": "Flt1", "result": "0.0565 ± 0.0155", "unit": "µM"}, {"measurement": "Inhibition, 10 μM XL-647", "setting": "[2]", "result": 53.97, "unit": "%"}, {"measurement": "IC50", "setting": "[3]", "result": 1.18, "unit": "µM"}, {"measurement": "inhibition at 10 µM", "setting": "[3]; read-out: Inhibition, 10 μM XL-647", "result": 98.7, "unit": "%"}, {"measurement": "Single Dose Duration of Action (100 mg/kg, >50% inhibition)", "setting": "p-Y-EGFR; A431 xenografts", "result": ">72", "unit": "h"}, {"measurement": "inhibition at 3 mg/kg", "setting": "p-Y-EGFR; A-431, mouse, 3 mg/kg, dosed 3.5 hours before EGF", "result": 41, "unit": "%"}, {"measurement": "inhibition at 10 mg/kg", "setting": "p-Y-EGFR; A-431, mouse, 10 mg/kg, dosed 3.5 hours before EGF", "result": 70, "unit": "%"}, {"measurement": "inhibition at 30 mg/kg", "setting": "p-Y-EGFR; A-431, mouse, 30 mg/kg (plasma 4 μM), dosed 3.5 hours before EGF", "result": 89, "unit": "%"}, {"measurement": "inhibition at 100 mg/kg", "setting": "p-Y-EGFR; A-431, mouse, 100 mg/kg, dosed 3.5 hours before EGF", "result": 93, "unit": "%"}, {"measurement": "IC50", "setting": "p-Y-EGFR; in vivo, A431 xenografts, PO, read-out: Estimated IC50 (plasma concentration)", "result": 0.72, "unit": "µM"}, {"measurement": "inhibition at 10 µM", "setting": "[4]", "result": 11.7, "unit": "%"}, {"measurement": "Inhibition, 10 μM XL-647", "setting": "GABA A, Agonist Site", "result": 1.07, "unit": "%"}, {"measurement": "most common adverse events (frequency ≧10%)", "setting": "[5]", "result": "diarrhea, rash, fatigue, nausea, dry skin, cough, dyspnoea, anorexia, electrocardiogram QT prolongation (machine-read), vomiting, constipation, dysgeusia, upper respiratory tract infection, abdominal pain, back pain, pyrexia, dizziness, and dry mouth"}, {"measurement": "inhibition at 10 µM", "setting": "Calcium Channel, Type N", "result": 16.8, "unit": "%"}, {"measurement": "ED50", "setting": "[6]", "result": 16.4, "unit": "mg/kg"}, {"measurement": "IC50", "setting": "Lck", "result": "0.031 ± 0.0003", "unit": "µM"}, {"measurement": "IC50", "setting": "ZAP-70", "result": "7.81 ± 0.655", "unit": "µM"}, {"measurement": "IC50", "setting": "c-Met", "result": "0.332 ± 0.0507", "unit": "µM"}, {"measurement": "IC50", "setting": "c-Abl", "result": "0.337 ± 0.0036", "unit": "µM"}]}]}
